# From patent publication US10286000B2, “Retinoid X receptor-gamma agonists and retinoid X receptor-alpha antagonists for treatment of cancer” (St. Jude Children's Research Hospital, Inc., priority 2013, dated 2019)
# Entries after “also recorded” stand apart in the source; their conditions may differ.
# What was measured:
# [1] = tested on: NKG2DL (MICA-B, ULBP1-3) surface expression; assay: flow cytometry of NKG2DL cell surface expression in cancer cell lines; assay type: cell-based, human; settings: for NKG2DL expression, compound alone: HCT116 cells, 3 days; for effect of co-treatment on SPIR's upregulation of NKG2DLs: HCT116, SPIR 56 μM 3 days, HX531 10 μM, caffeine 1.5 mM, wortmannin 10 μM, KU55933 10 μM, VE-821 10 μM
# Protocol: Data are representative of five independent experiments. […] Controls were stained with APC-conjugated anti-human Fc antibody alone without preincubation with NKG2D-Fc. Data are representative of three independent experiments. […] Results are representative of two independent experiments. […] (E) NKG2DL mRNA expression in the colon cancer cell lines was analyzed by qRT-PCR analysis. Data are normalized to GAPDH mRNA levels and are presented as fold-change relative to the expression in DMSO-treated cells (n=5). (F) Lentiviral-based luciferase reporter construct containing the putative ULBP2 promoter (−2415 to 0 bp from the transcription start site: 73 bp upstream of ATG) was transduced into the colon cancer cell lines. Positively transduced cells were selected by puromycin treatment (2 μg/ml) for 2 weeks. […] Data shown are expressed as fold-change relative to the luciferase activity observed in DMSO-treated cells (n=3). * P<0.05, ** P<0.01.
# (§1) Cell lines were stained with allophycocyanin-conjugated anti-MICA, anti-MICB, or anti-ULBP2 antibodies for 20 min at 4° C. For ULBP1 and ULBP3 staining, cells were first incubated with anti-ULBP1 and anti-ULBP3 antibodies and then with allophycocyanin-conjugated goat anti-mouse IgG antibody. To analyze total NKG2DL cell surface expression, cells were first incubated with human NKG2D-Fc for 20 min at 4° C. and then with allophycocyanin-conjugated mouse anti-human IgG (Fc) antibody. Cells were washed and analyzed on a C6 flow cytometer (Accuri). Data were analyzed using FlowJo software (TreeStar).
# [2] = tested on: TIMP2 and TIMP3; assay: qRT-PCR of TIMP2 and TIMP3 mRNA; assay type: cell-based, human; settings: HCT116 cells, 3 days
# Protocol: (§2) The number of cells that invaded the ECM was determined after 24 h. Data are expressed as percentage change in tumor invasion relative to that of DMSO-treated cells (n=3). (D) Wound healing by DMSO- and SPIR-treated HCT116, HT29, and CAL27 cells was compared. Data are calculated as the percentage change in distance of migration relative to that of DMSO-treated cells (n=3). […] Tumor xenografts and lung metastases were detected by bioluminescence imaging on day 25. Data are shown as the average total flux (photons/second)±standard deviation (n=8). (F) The lung metastases (arrows) were confirmed by examining lung tissue sections. * P≤0.05, ** P<0.01, *** P<0.005, **** P<0.0001.
# For qRT-PCR, total RNA was extracted from untreated or drug-treated tumor cells by using the RNA Clean & Concentrator (Zymo Research). All cDNA was generated by using the SuperScript VILO cDNA Synthesis kit (Life Technologies) and diluted 10-fold for analysis using the 7900HT Fast Real-time PCR System (Applied Biosystems). The data were calculated as the CT of target genes normalized to the CT of GAPDH of each sample. Primer sequences of the target genes were: MICA-F: 5′-[…]-3′, (SEQ ID NO: 14) MICA-R: 5′-[…]-[…]-3′, (SEQ ID NO: 15) MICB-F: 5′-[…]-3′, (SEQ ID NO: 16) MICB-R:5′-CCCTC-[…]-3′, (SEQ ID NO: 17), ULBP1-F:5′-[…]-3′, (SEQ ID NO: 18), ULBP1-R:5′-[…]-3′, (SEQ ID NO: 19), ULBP2-F:5′-[…]-3′, (SEQ ID NO: 20), ULBP2-R:5′-[…]-3′, (SEQ ID NO: 21), ULBP3-F:5′-[…]-TTCG-3′, (SEQ ID NO: 22), ULBP3-R:[…]-3′, (SEQ ID NO: 23), TIMP2-F:5′-[…]-[…]-3′, (SEQ ID NO: 24), TIMP2-R:[…]-3′, (SEQ ID NO: 25), TIMP3-F:5′-[…]-3′, (SEQ ID NO: 26), TIMP3-R:5′-[…]-[…]-3′ (SEQ ID NO: 27), GAPDH-F: 5′-[…]3′ (SEQ ID NO: 28), GAPDH-R: 5′-G-[…]-3′ (SEQ ID NO: 29). […] Differentially expressed transcripts were analyzed by ANOVA on Spotfire program.
# [3] = tested on: HCT116, HT29, and CAL27 cells; assay: in vitro cell invasion assay (ECM-coated Transwell); assay type: cell-based, human; settings: HCT116 cells
# Protocol: as §2
# The invasiveness of the tumor cells was determined by using the CytoSelect 96-well Cell Invasion Assay with Basement Membrane (Cell Biolabs) according to the manufacturer instructions.
# [4] = tested on: HCT116, HT29, and CAL27 cells; assay: wound-healing assay; assay type: cell-based, human; settings: HCT116 cells
# Protocol: as §2
# Confluent cell layers of CAL27 and HT29 cells with a 500 μm±50 μm gap were formed by using Ibidi culture inserts (RPI Corp.). Gap distances were measured at various times using a Nikon Eclipse Ti inverted microscope and NIS-Elements software (Nikon).
# [5] = tested on: 47 NHRs in HCT116 cells; assay: human nuclear hormone receptor siRNA library / siRNA knockdown, NKG2DL expression by NKG2D-Fc staining; assay type: cell-based
# Protocol: as §1
# For the transfection study, 2×10^5 cells were transfected with 60 pmol of siRNA molecules using lipofectamine RNAiMAX according to the manufacturer's instructions (Invitrogen).
# Consistent with previous reports, RXR-gamma was constitutively expressed in HCT116 cells (FIG. 5C) (Papi et al. 2010. Cancer Lett 297:65-74). Expression of RXR-gamma mRNA was also observed in all other cell lines tested. (FIG. 5D).
compound,measurement,setting,value
"CC1=C(/C=C/C(C)=C\C=C\C(C)=C\C(=O)O)C(C)(C)CCC1 [9-cis-RA, 9-cis-retinoic acid]","NKG2DL expression, compound alone",[1],did not induce the upregulation of NKG2DL expression; also recorded: decrease was observed
CN1c2ccc([N+](=O)[O-])cc2N=C(c2ccc(C(=O)O)cc2)c2cc3c(cc21)C(C)(C)CCC3(C)C [HX531],effect of co-treatment on SPIR's upregulation of NKG2DLs,[1],significantly reduced
O=c1cc(-c2cccc3c2Sc2ccccc2S3)oc(N2CCOCC2)c1 [KU55933],effect of co-treatment on SPIR's upregulation of NKG2DLs,[1],completely abolished
CS(=O)(=O)c1ccc(-c2cnc(N)c(C(=O)Nc3ccccc3)n2)cc1 [VE-821],effect of co-treatment on SPIR's upregulation of NKG2DLs,[1],only partially reduced
same,effect of co-treatment on NKG2DL expression at increased concentration,"[1]; HCT116, SPIR 56 μM, VE-821 20 μM",did not further affect NKG2DL expression
Cn1c(=O)c2c(ncn2C)n(C)c1=O [caffeine],effect of co-treatment on SPIR's upregulation of NKG2DLs,[1],completely abolished
C[C@]12CCC(=O)C=C1C=C[C@@H]1[C@@H]2CC[C@@]2(C)[C@H]1CC[C@@]21CCC(=O)O1 [canrenone],"NKG2DL expression, compound alone",[1],did not reproduce the phenotypes of enhanced expression of NKG2DL
same,TIMP2 expression,[2],neither canrenone nor eplerenone upregulated TIMP2 expression
same,"cell invasion, MR antagonists vs SPIR",[3],did not reproduce the suppressive effect of SPIR
same,"cell migration, MR antagonists vs SPIR",[4],did not reproduce the suppressive effect of SPIR
COC(=O)[C@@H]1CC2=CC(=O)CC[C@]2(C)[C@@]23O[C@@H]2C[C@@]2(C)[C@@H](CC[C@@]24CCC(=O)O4)[C@H]13 [eplerenone],"NKG2DL expression, compound alone",[1],did not reproduce the phenotypes of enhanced expression of NKG2DL
same,TIMP2 expression,[2],neither canrenone nor eplerenone upregulated TIMP2 expression
same,"cell invasion, MR antagonists vs SPIR",[3],did not reproduce the suppressive effect of SPIR
same,"cell migration, MR antagonists vs SPIR",[4],did not reproduce the suppressive effect of SPIR
"RXR-alpha siRNA: siRNA targeting RXR-alpha, ThermoScientific Cat No. D-003443-06; GGGAGAAGGUCUAUGCGUC (listed as RNA, chemistry not given here)",NKG2DL expression after gene knockdown without drug treatment,[5],enhances the expression of NKG2DLs; also recorded: increase of NKG2DL expression
same,SPIR-mediated NKG2DL upregulation after siRNA knockdown,[5],did not affect the potential of SPIR in upregulating NKG2DL expression
